Data: ChEMBL document CHEMBL1141481, “Probing the structural and topological requirements for CCR2 antagonism: holographic QSAR for indolopiperidine derivatives” (Bioorg Med Chem Lett, 2008)
Several values for one entry are separate records, joined by “and”; a condition that tells them apart may be missing. Equal values may be shown once.

These compounds were tested against C-C chemokine receptor type 2 (Homo sapiens, UniProt P41597) (assay: Antagonist activity at human CCR2 receptor).
C-C chemokine receptor type 2, sequence (P41597 whole entry): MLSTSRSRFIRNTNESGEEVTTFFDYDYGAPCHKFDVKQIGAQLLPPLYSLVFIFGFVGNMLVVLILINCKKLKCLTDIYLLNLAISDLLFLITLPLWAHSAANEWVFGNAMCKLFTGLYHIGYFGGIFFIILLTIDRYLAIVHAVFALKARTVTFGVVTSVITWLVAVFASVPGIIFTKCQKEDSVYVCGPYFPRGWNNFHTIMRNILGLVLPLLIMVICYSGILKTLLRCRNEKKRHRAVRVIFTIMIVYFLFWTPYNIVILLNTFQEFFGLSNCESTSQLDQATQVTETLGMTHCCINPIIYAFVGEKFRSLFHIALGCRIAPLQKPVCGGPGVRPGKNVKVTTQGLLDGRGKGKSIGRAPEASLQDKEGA

Row | Ki | SMILES
1 | 4470 nM | O=C(/C=C/c1ccccc1Cl)NCCCCCN1CCC(c2c[nH]c3ccccc23)CC1
2 | 427 nM | O=C(/C=C/c1ccc(Cl)c(Cl)c1)NCCCCCN1CCC(c2c[nH]c3ccccc23)CC1
3 | 12900 nM | CC(=O)Nc1ccc(/C=C/C(=O)NCCCCCN2CCC(c3c[nH]c4ccccc34)CC2)cc1
4 | 468 nM | O=C(/C=C/c1ccc(I)cc1)NCCCCCN1CCC(c2c[nH]c3ccccc23)CC1
5 | 355 nM | O=C(/C=C/c1ccc(Br)cc1)NCCCCCN1CCC(c2c[nH]c3ccccc23)CC1
6 | 1700 nM | CCCCc1ccc(/C=C/C(=O)NCCCCCN2CCC(c3c[nH]c4ccccc34)CC2)cc1
7 | 1620 nM | O=C(NCCCCCN1CCC(c2c[nH]c3ccccc23)CC1)Nc1ccc(Cl)c(Cl)c1
8 | 562 nM | Cc1ccc(/C=C/C(=O)NCCCCCN2CCC(c3c[nH]c4ccccc34)CC2)cc1
9 | 5500 nM | O=C(NCCCCCN1CCC(c2c[nH]c3ccccc23)CC1)c1ccc(-c2ccccc2)cc1
10 | 1480 nM | O=C(/C=C/c1ccc(-c2ccccc2)cc1)NCCCCCN1CCC(c2c[nH]c3ccccc23)CC1
11 | 4470 nM | O=C(Cc1ccc(Cl)c(Cl)c1)NCCCCCN1CCC(c2c[nH]c3ccccc23)CC1
12 | 7240 nM | O=C(NCCCCCN1CCC(c2c[nH]c3ccccc23)CC1)c1ccc(Br)cc1

Row | SMILES | Ki
13 | O=C(/C=C/c1ccc(Cl)c(Cl)c1)N[C@H]1CC[C@H](CN2CCC(c3c[nH]c4ccccc34)CC2)CC1 | 631 nM and 646 nM
